In ChEMBL document CHEMBL3885861, “Open TG-GATES”:

Organism: Rattus norvegicus
Experiment: Open TG-GATES - Regimen: Daily Repeat
Type: toxicity, organism-based, Sprague-Dawley
Design: regimen Daily Repeat, gender Male, age 6 weeks
Details: in vivo, po, 0 mg/kg, route gavage, dose level Control; for APTT / Bas / Eos / Fbg / Hb / Ht / Lym / MCH / MCHC / MCV / Mono / Neu / PT / Plat / RBC / Ret / WBC: tissue Blood
[1] = 72 h, tissue Plasma, time 3 day

In the case of `C=C(C)[C@H]1Cc2c(ccc3c2O[C@@H]2COc4cc(OC)c(OC)cc4[C@@H]2C3=O)O1` [ROTENONE], the TERMINAL_BW (72 h, time 3 day) is reported as 213.4 g, the APTT (72 h, time 3 day) is reported as 16 s and the Bas (72 h, time 3 day) is reported as 0%. It also gave an Eos (72 h, time 3 day) of 1%, a Fbg (72 h, time 3 day) of 211.8 mg/dL and a Hb (72 h, time 3 day) of 13.2 g/dL. For the same molecule, the Ht (72 h, time 3 day) was 40.7%, the Lym (72 h, time 3 day) was 77.8% and the MCH (72 h, time 3 day) was 20.8 pg. The MCHC (72 h, time 3 day) was 32.4%, the MCV (72 h, time 3 day) was 64.1 fL and the Mono (72 h, time 3 day) was 7.8%. It also gave a Neu (72 h, time 3 day) of 14%, a PT (72 h, time 3 day) of 11.8 s and a Plat (72 h, time 3 day) of 118 x10_4/uL. The RBC (72 h, time 3 day) was 635 x10_4/ul, the Ret (72 h, time 3 day) was 6.1% and the WBC (72 h, time 3 day) was 92.8 x10_2/uL. For the same molecule, the LIVER (72 h, tissue Liver, time 3 day) was 10 g, the A/G [1] was 2.3 and the ALP [1] was 1677.6 IU/L. For the same molecule, the ALT [1] was 37.8 IU/L, the AST [1] was 67.4 IU/L and the BUN [1] was 18 mg/dL. For the same molecule, the CRE [1] was 0.4 mg/dL, the Ca [1] was 11.3 mg/dL and the Cl [1] was 104.2 meq/L. For the same molecule, the DBIL [1] was 0.014 mg/dL, the GLC [1] was 187.2 mg/dL and the IP [1] was 7.1 mg/dL. It also gave a K [1] of 4.4 meq/L, an LDH [1] of 96.6 IU/L and a Na [1] of 140.6 meq/L. For the same molecule, the PL [1] was 141.8 mg/dL, the RALB [1] was 3.8 g/dL and the TBIL [1] was 0.042 mg/dL. The TC [1] was 77.6 mg/dL, the TG [1] was 105 mg/dL and the TP [1] was 5.5 g/dL. It also gave a gamma-GTP [1] of 0.4 IU/L, a TERMINAL_BW ([…], time 7 day) of 254 g and a TERMINAL_BW ([…], time 14 day) of 305.5 g. It also gave a TERMINAL_BW ([…], time 28 day) of 378.4 g, an APTT ([…], time 7 day) of 15.9 s and a Bas ([…], time 7 day) of 0%. The Eos ([…], time 7 day) was 1%, the Fbg ([…], time 7 day) was 239.4 mg/dL and the Hb ([…], time 7 day) was 13.2 g/dL. For the same molecule, the Ht ([…], time 7 day) was 40.2%, the Lym ([…], time 7 day) was 80% and the MCH ([…], time 7 day) was 21.1 pg. The MCHC ([…], time 7 day) was 32.8%, the MCV ([…], time 7 day) was 64.3 fL and the Mono ([…], time 7 day) was 6%. It also gave a Neu ([…], time 7 day) of 13.2%, a PT ([…], time 7 day) of 11.6 s and a Plat ([…], time 7 day) of 122.4 x10_4/uL. For the same molecule, the RBC ([…], time 7 day) was 626.2 x10_4/ul, the Ret ([…], time 7 day) was 5.5% and the WBC ([…], time 7 day) was 113.8 x10_2/uL. For the same molecule, the APTT ([…], time 14 day) was 14.9 s, the Bas ([…], time 14 day) was 0% and the Eos ([…], time 14 day) was 1%. It also gave a Fbg ([…], time 14 day) of 241.8 mg/dL, a Hb ([…], time 14 day) of 13.9 g/dL and a Ht ([…], time 14 day) of 41.9%. For the same molecule, the Lym ([…], time 14 day) was 73.6%, the MCH ([…], time 14 day) was 20.5 pg and the MCHC ([…], time 14 day) was 33.1%. For the same molecule, the MCV ([…], time 14 day) was 61.8 fL, the Mono ([…], time 14 day) was 4.6% and the Neu ([…], time 14 day) was 21%. The PT ([…], time 14 day) was 11.3 s, the Plat ([…], time 14 day) was 125.6 x10_4/uL and the RBC ([…], time 14 day) was 678.4 x10_4/ul. It also gave a Ret ([…], time 14 day) of 3.8%, a WBC ([…], time 14 day) of 106.4 x10_2/uL and an APTT ([…], time 28 day) of 18 s. The Bas ([…], time 28 day) was 0% and the Eos ([…], time 28 day) was 1%.
